Assay [1] deals with T1, RXR-γ (Mus musculus, UniProt P28705).
T1 sequence (P28705 1-463): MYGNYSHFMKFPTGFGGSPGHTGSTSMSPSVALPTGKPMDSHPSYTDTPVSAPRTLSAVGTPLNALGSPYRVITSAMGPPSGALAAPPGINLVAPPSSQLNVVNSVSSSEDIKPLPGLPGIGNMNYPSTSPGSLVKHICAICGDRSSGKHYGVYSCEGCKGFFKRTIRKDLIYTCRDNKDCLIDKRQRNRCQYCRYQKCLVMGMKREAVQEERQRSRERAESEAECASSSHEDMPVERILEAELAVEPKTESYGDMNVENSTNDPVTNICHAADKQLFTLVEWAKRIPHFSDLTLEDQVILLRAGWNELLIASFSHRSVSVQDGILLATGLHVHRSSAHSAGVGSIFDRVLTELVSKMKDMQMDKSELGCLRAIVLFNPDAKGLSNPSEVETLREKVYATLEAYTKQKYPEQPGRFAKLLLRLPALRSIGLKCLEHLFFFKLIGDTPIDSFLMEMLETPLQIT
Briefly: Cotransfection assay in CV-1 cells. It counts as cell-based. The settings on record: RXRγ; maximal response relative to retinoic acid at 10^-5 M.

The subject of assay [2] is RXR-α. The assay can be described thus: Cotransfection assay in CV-1 cells. It is filed as cell-based, human. Conditions: RXRα; maximal response relative to retinoic acid at 10^-5 M.
In assay [3] the target is T2, RXR-β (Mus musculus, UniProt P28704).
T2 sequence (P28704 1-520): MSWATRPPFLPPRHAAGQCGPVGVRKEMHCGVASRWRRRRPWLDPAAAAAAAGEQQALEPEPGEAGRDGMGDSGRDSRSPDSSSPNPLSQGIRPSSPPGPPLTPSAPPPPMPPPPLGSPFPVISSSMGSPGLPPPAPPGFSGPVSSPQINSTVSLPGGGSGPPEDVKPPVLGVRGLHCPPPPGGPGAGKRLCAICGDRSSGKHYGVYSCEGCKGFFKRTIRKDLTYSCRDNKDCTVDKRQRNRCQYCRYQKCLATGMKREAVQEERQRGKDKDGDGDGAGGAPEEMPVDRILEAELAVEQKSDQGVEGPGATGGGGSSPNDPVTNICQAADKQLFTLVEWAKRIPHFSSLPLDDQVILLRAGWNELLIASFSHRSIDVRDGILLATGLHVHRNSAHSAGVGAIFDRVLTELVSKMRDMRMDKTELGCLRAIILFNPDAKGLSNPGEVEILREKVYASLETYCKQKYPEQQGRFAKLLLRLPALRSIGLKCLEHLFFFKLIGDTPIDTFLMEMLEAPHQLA
Briefly: Cotransfection assay in CV-1 cells. It counts as cell-based. Conditions: RXRβ; maximal response relative to retinoic acid at 10^-5 M.

Assay [4] concerns human primary metastatic melanoma cell line c81-46c. Briefly: In vitro proliferation of melanoma cell line. It counts as cell-based. The settings on record: read-out: % Growth inhibition; for inhibition at 0.01 µM: 0.01 µM added; for inhibition at 1 µM: 1 µM added.
Assay [5] concerns murine melanoma cell line Clone M3. Briefly: In vitro proliferation of melanoma cell line. Conditions: Mus musculus, read-out: % Growth inhibition.
In assay [6] the test system is normal human epidermal keratinocytes (NHEK534 cell line). Briefly: cells. Conditions: Keratinocyte, read-out: EC50 for inhibition of differentiation.
Assay [7] relates to HL60R cells. The assay can be described thus: Differentiation of HL60R cells (NBT). It counts as cell-based. The settings on record: concentrations up to 10 µM.
Assay [8] deals with HL60 cells. The assay can be described thus: cells. The settings on record: Homo sapiens, HL-60, 144 h, read-out: EC-50 for differentiation, as determined by NBT.
The test system of assay [9] is RAR-β. The assay can be described thus: Cotransfection assay in CV-1 cells. It is filed as cell-based, human. The settings on record: RARβ; maximal response relative to retinoic acid at 10^-5 M.
For assay [10], the system named is RAR-γ. The assay can be described thus: Cotransfection assay in CV-1 cells. It is filed as cell-based, human. The settings on record: RARγ; maximal response relative to retinoic acid at 10^-5 M.
The test system of assay [11] is RAR-α. Briefly: Cotransfection assay in CV-1 cells. It is filed as cell-based, human. The settings on record: RARα; maximal response relative to retinoic acid at 10^-5 M.

Bounds are passed on as bounds.

As to `CC1=C(/C=C/C(C)=C\C=C\C(C)=C\C(=O)O)C(C)(C)CCC1=O` [4-keto-9-cis-retinoic acid], the Efficacy in assay [1] came out at 133%; in assay [2], 104%; in assay [3] it was 105%.
In the case of `CC1=C(/C=C/C(C)=C\C=C\C(C)=C\C(=O)O)C(C)(C)CCC1` [9-cis-retinoic acid], the inhibition at 0.01 µM in assay [4] is -28%; in assay [5] it was -49%. The inhibition at 1 µM in [4] was -45%; in assay [5], -85%. The EC50 in assay [6] came to 20 ± 2.8 nM.
On to `CC1=C(/C=C/C(C)=C/C=C/C(C)=C/C(=O)O)C(C)(C)CCC1` [all-trans-retinoic acid], for which, in assay [4], the inhibition at 0.01 µM was -17% and the inhibition at 1 µM is -44%. Also, the EC50 in assay [6] is 20 ± 2.8 nM. Also, the “differentiation (NBT) of HL60R cells” value in assay [7] was “resistant to differentiation”. In assay [8], the EC50 amounted to 2000 nM.
As to `CC1=C(/C=C/C(C)=C\C=C\C(C)=C\C(=O)O)C(C)(C)CCC1O` (stereo not drawn) [4-hydroxy-9-cis-retinoic acid], the Efficacy stood at 71% in assay [9]; 115% in assay [1]; 81% in assay [10]; 65% in assay [11]; 143% in [3].
With `CC1=C(/C=C/C(=C\C=C\C(C)=C\C(=O)O)c2ccccc2)C(C)(C)CCC1` [9-phenyl-9-cis-retinoic acid], the Efficacy is on record as 39% in assay [9]; 77% in assay [1]; 59% in assay [10]; 76% in assay [2]; under 2% in [11]; 88% in [3].

Usually inhibition stands for the relative decrease from the control value, in per cent.

(Values after patent EP0807624B1, “RETINOIC ACID DERIVATIVES” (THE SALK INSTITUTE FOR BIOLOGICAL STUDIES, priority 1991, dated 1993).)
